One assay concerns the target T1, Toll-like receptor 9 (Homo sapiens, UniProt Q9NR96).
T1 sequence (Q9NR96 whole entry): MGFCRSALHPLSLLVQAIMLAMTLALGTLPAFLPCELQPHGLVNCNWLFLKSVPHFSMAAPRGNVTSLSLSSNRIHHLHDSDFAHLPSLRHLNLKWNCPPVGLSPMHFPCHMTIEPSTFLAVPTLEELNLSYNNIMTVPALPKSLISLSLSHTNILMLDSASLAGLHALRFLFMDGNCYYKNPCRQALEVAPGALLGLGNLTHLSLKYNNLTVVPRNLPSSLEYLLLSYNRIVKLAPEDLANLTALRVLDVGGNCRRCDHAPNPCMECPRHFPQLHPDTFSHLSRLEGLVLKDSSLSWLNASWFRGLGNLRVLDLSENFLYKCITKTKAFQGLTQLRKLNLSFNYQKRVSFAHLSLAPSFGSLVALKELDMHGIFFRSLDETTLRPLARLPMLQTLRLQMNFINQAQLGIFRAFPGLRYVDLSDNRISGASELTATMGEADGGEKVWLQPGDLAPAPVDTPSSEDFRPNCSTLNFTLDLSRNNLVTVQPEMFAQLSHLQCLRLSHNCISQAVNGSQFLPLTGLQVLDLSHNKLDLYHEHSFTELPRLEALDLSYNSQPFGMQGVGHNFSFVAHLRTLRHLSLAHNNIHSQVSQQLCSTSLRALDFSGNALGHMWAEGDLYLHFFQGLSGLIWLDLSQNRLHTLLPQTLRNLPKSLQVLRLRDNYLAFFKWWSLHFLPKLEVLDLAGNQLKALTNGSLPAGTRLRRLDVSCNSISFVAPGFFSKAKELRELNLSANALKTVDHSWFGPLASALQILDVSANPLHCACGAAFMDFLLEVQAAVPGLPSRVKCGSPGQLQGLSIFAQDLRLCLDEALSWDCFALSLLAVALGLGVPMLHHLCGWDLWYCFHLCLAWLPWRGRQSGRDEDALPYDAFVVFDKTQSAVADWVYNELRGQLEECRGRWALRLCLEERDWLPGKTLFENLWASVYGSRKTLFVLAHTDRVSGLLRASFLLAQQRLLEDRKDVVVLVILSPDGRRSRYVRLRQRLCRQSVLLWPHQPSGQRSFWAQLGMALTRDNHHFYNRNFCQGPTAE
The assay is described as follows: Antagonist activity at human TLR9 expressed in HEK293 cells assessed as blockade of CpG oligonucleotide-induced immune response by NF-kappaB luciferase reporter gene assay. The assay is classed as functional, cell-based.

The target in assay [1] is T2, Toll-like receptor 7 (Homo sapiens, UniProt Q9NYK1).
T2 sequence (Q9NYK1 whole entry): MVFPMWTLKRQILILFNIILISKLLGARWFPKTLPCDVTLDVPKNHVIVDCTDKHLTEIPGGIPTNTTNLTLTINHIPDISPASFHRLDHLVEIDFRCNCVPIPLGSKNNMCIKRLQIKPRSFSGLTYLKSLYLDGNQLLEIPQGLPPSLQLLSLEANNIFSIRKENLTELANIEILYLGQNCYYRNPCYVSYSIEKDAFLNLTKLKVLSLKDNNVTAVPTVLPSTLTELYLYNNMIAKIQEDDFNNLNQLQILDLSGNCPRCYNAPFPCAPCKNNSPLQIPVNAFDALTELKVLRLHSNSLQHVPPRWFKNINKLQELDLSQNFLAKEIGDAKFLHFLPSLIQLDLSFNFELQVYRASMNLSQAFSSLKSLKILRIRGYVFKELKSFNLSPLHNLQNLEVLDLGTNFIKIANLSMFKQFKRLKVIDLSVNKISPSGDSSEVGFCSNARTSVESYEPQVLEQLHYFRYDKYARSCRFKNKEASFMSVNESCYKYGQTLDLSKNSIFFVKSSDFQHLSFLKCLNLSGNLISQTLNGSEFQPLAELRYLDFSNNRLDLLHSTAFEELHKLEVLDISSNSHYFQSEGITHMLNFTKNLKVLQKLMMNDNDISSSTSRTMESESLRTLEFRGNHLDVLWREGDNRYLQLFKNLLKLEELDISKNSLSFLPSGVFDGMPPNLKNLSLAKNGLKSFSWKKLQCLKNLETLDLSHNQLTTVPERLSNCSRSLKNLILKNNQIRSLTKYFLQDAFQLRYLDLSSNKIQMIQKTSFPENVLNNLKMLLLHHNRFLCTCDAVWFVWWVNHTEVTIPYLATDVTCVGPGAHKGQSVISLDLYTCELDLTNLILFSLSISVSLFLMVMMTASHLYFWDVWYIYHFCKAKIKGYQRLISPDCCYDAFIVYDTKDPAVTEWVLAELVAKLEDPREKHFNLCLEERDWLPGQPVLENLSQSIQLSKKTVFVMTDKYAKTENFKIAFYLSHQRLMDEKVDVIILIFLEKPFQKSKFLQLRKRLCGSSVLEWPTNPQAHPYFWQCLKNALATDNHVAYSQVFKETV
The assay is described as follows: Agonist activity at human TLR7 by luciferase reporter gene assay. Format: functional. A general note: Reporter assays use an easily measured gene product as a stand-in for the process of interest.

Assay [2] concerns the target Toll-like receptor 4 (Mus musculus) (UniProt Q9QUK6). Put plainly: Inhibition of mouse TLR4-mediated cytokine production in mouse macrophages.
Assay [3] addresses T3, Toll-like receptor 4 (Homo sapiens, UniProt O00206). The assay is described as follows: Antagonist activity at TLR4 in human HL60 cells assessed as inhibition of LPS-induced cytokine production. The assay is classed as functional, cell-based, HL-60.
Assay [4] concerns the target T3, Toll-like receptor 4. The assay is described as follows: Antagonist activity at human TLR4 assessed as inhibition of LPS-induced cytokine production in HL-60 cells.
Assay [5] concerns the target T4, Toll-like receptor 8 (Homo sapiens, UniProt Q9NR97).
T4 sequence (Q9NR97 whole entry): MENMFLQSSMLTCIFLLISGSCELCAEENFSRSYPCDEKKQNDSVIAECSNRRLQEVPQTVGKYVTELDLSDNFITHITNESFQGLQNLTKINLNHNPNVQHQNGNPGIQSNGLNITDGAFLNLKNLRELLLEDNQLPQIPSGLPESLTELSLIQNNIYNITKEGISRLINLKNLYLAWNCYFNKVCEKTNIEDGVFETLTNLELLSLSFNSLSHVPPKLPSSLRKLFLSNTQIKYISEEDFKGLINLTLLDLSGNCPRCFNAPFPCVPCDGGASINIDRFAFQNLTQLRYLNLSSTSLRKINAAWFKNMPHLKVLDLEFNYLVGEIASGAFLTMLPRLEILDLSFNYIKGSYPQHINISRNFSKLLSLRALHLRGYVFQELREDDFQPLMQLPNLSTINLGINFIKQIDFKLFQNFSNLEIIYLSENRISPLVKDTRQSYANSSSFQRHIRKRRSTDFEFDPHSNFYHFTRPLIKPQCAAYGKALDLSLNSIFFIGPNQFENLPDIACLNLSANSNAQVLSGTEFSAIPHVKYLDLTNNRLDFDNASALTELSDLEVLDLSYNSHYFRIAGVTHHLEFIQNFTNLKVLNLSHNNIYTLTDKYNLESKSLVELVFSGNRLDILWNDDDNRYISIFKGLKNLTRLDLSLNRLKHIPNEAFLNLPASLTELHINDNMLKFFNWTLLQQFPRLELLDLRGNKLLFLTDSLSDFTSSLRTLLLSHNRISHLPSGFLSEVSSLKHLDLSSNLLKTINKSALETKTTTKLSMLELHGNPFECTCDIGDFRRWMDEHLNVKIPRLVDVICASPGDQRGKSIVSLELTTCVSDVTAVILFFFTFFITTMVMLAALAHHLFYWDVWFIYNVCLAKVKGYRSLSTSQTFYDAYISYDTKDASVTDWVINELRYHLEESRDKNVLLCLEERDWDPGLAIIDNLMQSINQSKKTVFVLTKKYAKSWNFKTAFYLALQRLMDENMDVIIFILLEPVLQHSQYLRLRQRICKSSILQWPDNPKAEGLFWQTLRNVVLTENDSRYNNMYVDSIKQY
Put plainly: Agonist activity at human TLR8 expressed in HEK cells by NF-kappaB luciferase reporter gene assay. The assay is classed as functional, cell-based, HEK293.

Assay [6] addresses T4, Toll-like receptor 8. Put plainly: Agonist activity at TLR8 in human PBMC cells assessed as TNFalpha level by ELISA. Format: functional, cell-based. On the technique in general: In an ELISA, binding on a coated surface is turned into a signal by an enzyme label.
In assay [7] the target is T5, Toll-like receptor 2 (Homo sapiens, UniProt O60603). The assay is described as follows: Antagonist activity at human TLR2 expressed in HE293 cells co-transfected with pELAM by luciferase reporter gene assay. Format: functional, cell-based, HEK293.
T5 sequence (O60603 whole entry): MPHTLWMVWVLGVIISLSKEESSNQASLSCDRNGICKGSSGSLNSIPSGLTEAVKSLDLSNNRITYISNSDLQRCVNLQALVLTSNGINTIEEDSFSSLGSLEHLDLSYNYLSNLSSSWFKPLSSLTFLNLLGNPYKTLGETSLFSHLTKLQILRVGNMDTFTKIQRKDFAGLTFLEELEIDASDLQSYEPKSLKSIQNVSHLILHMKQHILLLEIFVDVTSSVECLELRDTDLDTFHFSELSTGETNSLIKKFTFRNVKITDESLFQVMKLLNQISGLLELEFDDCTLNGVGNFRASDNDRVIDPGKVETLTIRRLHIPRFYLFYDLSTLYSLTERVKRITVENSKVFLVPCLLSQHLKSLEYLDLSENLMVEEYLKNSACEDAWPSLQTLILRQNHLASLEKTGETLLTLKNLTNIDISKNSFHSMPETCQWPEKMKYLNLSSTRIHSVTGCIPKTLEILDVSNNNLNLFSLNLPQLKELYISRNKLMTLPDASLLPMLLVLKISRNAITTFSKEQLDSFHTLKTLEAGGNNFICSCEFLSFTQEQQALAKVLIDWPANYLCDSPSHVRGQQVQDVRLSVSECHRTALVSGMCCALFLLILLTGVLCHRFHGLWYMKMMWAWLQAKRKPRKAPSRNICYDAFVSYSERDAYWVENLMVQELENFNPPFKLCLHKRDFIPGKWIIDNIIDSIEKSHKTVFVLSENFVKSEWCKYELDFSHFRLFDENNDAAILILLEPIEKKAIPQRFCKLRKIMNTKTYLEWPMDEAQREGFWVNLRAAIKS
Assay [8] has as its target T5, Toll-like receptor 2. The assay is described as follows: Inhibition of TLR2-mediated IL8 secretion in human THP1 cells. Format: cell-based, THP-1.
For another assay, the species on record is Homo sapiens. Put plainly: Selectivity for human TLR2 over human TLR4.
For assay [9], the target named is T2, Toll-like receptor 7. The assay is described as follows: Agonist activity at TLR7 in human PBMC cells assessed as stimulation of interferon release. The assay is classed as functional, cell-based.

Where a SMILES comes first, the peptide text is derived from it. The star is where a group is joined. X1 = CCCCCCCCCCCCCC(=O)N[C@@H](C*)C(=O)NCCCCCCCC; Myristoyl = CCCCCCCCCCCCCC(=O)*

T3 sequence (O00206 whole entry): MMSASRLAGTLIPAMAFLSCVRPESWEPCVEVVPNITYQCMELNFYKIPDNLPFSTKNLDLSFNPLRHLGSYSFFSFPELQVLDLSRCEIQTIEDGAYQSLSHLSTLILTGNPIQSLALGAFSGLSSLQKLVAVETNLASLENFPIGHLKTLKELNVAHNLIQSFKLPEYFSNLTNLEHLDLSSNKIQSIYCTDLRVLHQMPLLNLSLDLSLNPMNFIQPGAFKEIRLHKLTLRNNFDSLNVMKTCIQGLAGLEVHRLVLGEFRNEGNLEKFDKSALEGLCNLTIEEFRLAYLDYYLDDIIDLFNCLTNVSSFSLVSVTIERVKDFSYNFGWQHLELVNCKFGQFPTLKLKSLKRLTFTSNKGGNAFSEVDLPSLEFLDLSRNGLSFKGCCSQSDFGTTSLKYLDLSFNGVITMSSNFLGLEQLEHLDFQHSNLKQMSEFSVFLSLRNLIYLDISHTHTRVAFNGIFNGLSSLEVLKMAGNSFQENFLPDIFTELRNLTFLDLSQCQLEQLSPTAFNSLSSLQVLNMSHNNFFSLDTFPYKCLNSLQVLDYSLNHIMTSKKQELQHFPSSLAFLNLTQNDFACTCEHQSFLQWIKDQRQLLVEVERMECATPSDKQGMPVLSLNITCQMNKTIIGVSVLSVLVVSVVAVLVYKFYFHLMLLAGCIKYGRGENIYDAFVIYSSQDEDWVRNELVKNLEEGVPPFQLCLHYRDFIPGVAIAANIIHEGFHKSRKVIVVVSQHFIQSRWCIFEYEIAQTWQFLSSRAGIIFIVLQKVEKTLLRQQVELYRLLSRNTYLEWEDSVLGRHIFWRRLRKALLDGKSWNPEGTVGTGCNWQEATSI

In general, IC50 refers to the point on the concentration scale where inhibition reaches its midpoint. `CN(C)CCNc1nc(-c2ccc(N3CCN(C)CC3)cc2)nc2ccccc12`: on Toll-like receptor 9, the IC50 was found to be 3 nM.
A word on the EC50: it is the concentration giving half of the maximal effect. `COCCOc1nc(N)c2nc(NN)n(Cc3ccccc3)c2n1`: a half-maximal effect at Toll-like receptor 7 [1] (EC50) was put at 790 nM.
Turning to `CCOC(=O)C1=CCCCC1S(=O)(=O)NC1=NCCS1` (configuration not stated), the IC50 in assay [2] is greater than 10000 nM.
Still for that read-out and setting: the same measure for `CCOC(=O)c1ccccc1S(=O)(=O)Nc1ccc(F)cc1Cl`: greater than 10000 nM.
`CCCCCC/C=C\CCCCCCCCCC(=O)N[C@H]1[C@H](OC[C@H]2O[C@H](OP(=O)(O)O)[C@H](NC(=O)CC(=O)CCCCCCCCCCC)[C@@H](OCCCCCCCCCC)[C@@H]2O)O[C@H](COC)[C@@H](OP(=O)(O)O)[C@@H]1OCC[C@@H](CCCCCCC)OC` [ERITORAN TETRASODIUM]: the IC50 at Toll-like receptor 4 [3] and at Toll-like receptor 4 [4] was 1.5 nM in each case.
With `CCN(CC)C(=O)N1CC(N)=Nc2ccccc2C1`, the EC50 on Toll-like receptor 8 [5] and at Toll-like receptor 8 [6] was less than 100000 nM in each case.
The compound `COCCOc1nc(N)c2nc(NCCCO)n(Cc3ccccc3)c2n1` showed an EC50 at Toll-like receptor 7 [1] of 3200 nM.
Turning to `CCOC(=O)C1=CCCCC1S(=O)(=O)Nc1ccc(Cl)cc1F` (configuration not stated), the IC50 in [2] is 160 nM.
`CCCCCCCCCCCCCC(=O)N[C@@H](COP(=O)(O)OCCNC(=O)[C@@H](NC(=O)Cc1ccc(O)cc1)[C@@H](C)C(=O)O)C(=O)NCCC(CCCCCCC)OC(=O)CCCCCCCCCCC` (some centres not stated) came in with an IC50 against Toll-like receptor 2 [7] of 900 nM.
In turn, `CCCCCCCCCCCCCC(=O)N[C@@H](CSC[C@H](NC(=O)CCCCCCCCCCCCC)C(=O)N[C@@H](CO)C(=O)N[C@@H](CCCCN)C(=O)N[C@@H](CCCCN)C(=O)N[C@@H](CCCCN)C(=O)N[C@@H](CCCCN)C(N)=O)C(=O)NCCCCCCCC` (Myristoyl-C(X1)SKKKK-NH2) gave an IC50 against Toll-like receptor 2 [8] of 5000 nM.
As to `CCCCCCCCCCCCCCCCCCCC(=O)N[C@@H](COP(=O)(O)OCCNC(=O)[C@@H](NC(=O)Cc1c[nH]c2ccc(OCc3ccccc3)cc12)[C@@H](C)CC)C(=O)NCCC(O)CCCCCCCCCCCCC` (some centres not stated), the IC50 against Toll-like receptor 2 [7] is 240 nM. Further, in the assay listed under Homo sapiens, the Selectivity ratio is greater than 25.
As for `CCCCCCCCCCCCCCCC(=O)N[C@@H](COP(=O)(O)OCCNC(=O)[C@@H](NC(=O)Cc1c[nH]c2ccc(-c3ccccc3)cc12)[C@@H](C)CC)C(=O)NCCCOC(=O)CCCCCCCCCCC`, at Toll-like receptor 2 [7], the IC50 is 230 nM.
Regarding `COCCOc1nc(N)c2nc(S)n(Cc3cccc(CP(C)(=O)O)c3)c2n1`, the EC50 at Toll-like receptor 7 [9] and at Toll-like receptor 7 [1] was 10 nM in each case.
